Data as given in patent publication US20250108038A1 (priority 2023, published 2025).
“Also recorded” adds a separate entry of the source.

Key:
[1] = tested on: orexin/tTA; Tet-O diphtheria toxin A mice (DTA mice); assay type: in vivo, mouse; conditions: 6 h after dosing at ZT12
[2] = target: T1, MATE1 (Homo sapiens, UniProt Q96FL8); assay: Uptake transporter inhibition assay, MATE1 (metformin)
T1 sequence (Q96FL8 1-570): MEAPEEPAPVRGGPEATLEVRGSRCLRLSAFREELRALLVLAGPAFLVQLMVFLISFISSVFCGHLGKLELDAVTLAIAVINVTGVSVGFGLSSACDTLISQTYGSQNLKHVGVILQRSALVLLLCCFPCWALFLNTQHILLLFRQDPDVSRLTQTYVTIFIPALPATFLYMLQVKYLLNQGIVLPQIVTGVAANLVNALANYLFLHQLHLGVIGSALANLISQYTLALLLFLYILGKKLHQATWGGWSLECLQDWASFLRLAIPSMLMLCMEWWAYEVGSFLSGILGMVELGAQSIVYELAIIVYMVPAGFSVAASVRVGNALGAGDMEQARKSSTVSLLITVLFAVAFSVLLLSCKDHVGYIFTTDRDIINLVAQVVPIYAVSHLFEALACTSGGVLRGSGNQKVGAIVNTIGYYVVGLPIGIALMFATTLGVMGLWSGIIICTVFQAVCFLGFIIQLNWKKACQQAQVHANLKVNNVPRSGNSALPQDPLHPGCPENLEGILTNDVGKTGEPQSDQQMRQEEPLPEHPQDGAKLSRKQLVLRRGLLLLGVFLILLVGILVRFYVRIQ

[3] = target: T2, OAT3 (Homo sapiens, UniProt Q8TCC7); assay: Uptake transporter inhibition assay, OAT3 (estrone-3-sulfate)
T2 sequence (Q8TCC7 1-542): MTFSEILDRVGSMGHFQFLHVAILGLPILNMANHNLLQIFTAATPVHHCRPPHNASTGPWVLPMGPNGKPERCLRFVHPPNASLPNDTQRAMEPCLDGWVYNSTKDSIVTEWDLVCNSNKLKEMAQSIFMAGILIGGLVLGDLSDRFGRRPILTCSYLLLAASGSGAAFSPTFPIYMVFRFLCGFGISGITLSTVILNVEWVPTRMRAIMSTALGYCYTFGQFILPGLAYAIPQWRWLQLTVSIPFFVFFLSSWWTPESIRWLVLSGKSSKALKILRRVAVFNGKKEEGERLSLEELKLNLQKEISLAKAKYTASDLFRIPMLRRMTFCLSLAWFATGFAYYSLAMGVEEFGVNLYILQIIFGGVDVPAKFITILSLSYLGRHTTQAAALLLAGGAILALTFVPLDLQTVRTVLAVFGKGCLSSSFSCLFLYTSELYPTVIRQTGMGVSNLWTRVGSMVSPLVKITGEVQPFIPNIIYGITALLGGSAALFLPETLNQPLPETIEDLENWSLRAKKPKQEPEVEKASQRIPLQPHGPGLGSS
Protocol: Uptake experiments were performed using HEK293 cells stably expressing the respective uptake transporters. The assays were conducted according to the actual SOLVO uptake transporter assay protocols (PR-ASY-UPT-General Protocol for Uptake Transporter Inhibition Assays).
Cells were cultured at 37° C. in a humidified atmosphere containing 5% CO2 and were plated onto standard 96-well tissue culture plates.
Before the experiment, the medium was removed, and the cells were washed twice with 100 μL of pre-warmed (37° C.) assay buffer listed in Table 15. The cells were pre-incubated at 37° C. for 30 minutes in assay buffer containing the test article at appropriate concentrations (Table 16), appropriate solvents for solvent controls and the reference inhibitor for reference inhibitor wells. After the pre-incubation step solutions were removed. Uptake experiments were performed at 37° C. in 50 μL of assay buffer containing the probe substrate and the test article or solvent and controls.
After the experiment, cells were washed twice with 100 μL of appropriate cold buffer and lysed with 150 μL scintillation cocktail. Radiolabeled probe substrate transport was determined by liquid scintillation counting.
Uptake of the probe substrate in control cells provided background activity values for all data points.

[4] = target: MATE2-K (Homo sapiens, UniProt Q86VL8); assay: Uptake transporter inhibition assay, MATE2-K (metformin)
Sequence of MATE2-K (Q86VL8 1-566 isoform Q86VL8-3): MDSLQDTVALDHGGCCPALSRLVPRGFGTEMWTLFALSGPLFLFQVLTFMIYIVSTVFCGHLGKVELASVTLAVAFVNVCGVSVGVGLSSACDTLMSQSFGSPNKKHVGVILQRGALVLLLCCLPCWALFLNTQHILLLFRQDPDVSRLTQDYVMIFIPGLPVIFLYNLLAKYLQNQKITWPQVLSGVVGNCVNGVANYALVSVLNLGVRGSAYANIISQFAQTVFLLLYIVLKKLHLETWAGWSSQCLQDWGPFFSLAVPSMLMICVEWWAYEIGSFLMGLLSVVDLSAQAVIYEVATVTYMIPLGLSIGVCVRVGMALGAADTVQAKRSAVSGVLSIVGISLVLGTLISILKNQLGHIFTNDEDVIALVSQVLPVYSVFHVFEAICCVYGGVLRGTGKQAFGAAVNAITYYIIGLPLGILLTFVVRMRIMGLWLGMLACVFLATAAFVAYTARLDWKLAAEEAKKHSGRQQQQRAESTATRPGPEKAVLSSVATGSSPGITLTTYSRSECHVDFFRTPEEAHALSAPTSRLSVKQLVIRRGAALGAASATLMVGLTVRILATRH

[5] = 0.04 μM nominal, IC50 determination
[6] = 0.12 μM nominal, IC50 determination
[7] = 1.11 μM nominal, IC50 determination
[8] = 10.00 μM nominal, IC50 determination
[9] = 30.00 μM nominal, IC50 determination
[10] = human, Relative inhibition, 0.04 μM nominal, IC50 determination
[11] = human, Relative inhibition, 0.12 μM nominal, IC50 determination
[12] = human, Relative inhibition, 1.11 μM nominal, IC50 determination
[13] = human, Relative inhibition, 3.00 μM nominal
[14] = human, Relative inhibition, 10.00 μM nominal, IC50 determination
[15] = human, Relative inhibition, 30.00 μM nominal
[16] = human, Relative inhibition, 30.00 μM nominal, IC50 determination

COCCOC1(c2ccc(Cl)cc2)c2ccccc2C2=NCCN21 (centres unmarked) [Compound I-4]
REM:NR ratios (effect) [1]: decreased REM:NR ratios | W consolidation (W bout duration, number of W bouts) [1]: Compound I-4 at 3 mg/kg consolidated W | body temperature (Tb) [1]: No significant effects on Tb were found | latency to REM (effect) [1]: Compound I-4 at 3 mg/kg significantly (p<0.05) increased the latency to REM | locomotor activity (LMA) [1]: increased significantly overall | total W or NREM time [1]: without any significant effects on total W or NREM | cataplexy (C) time ([1]; Compound I-19 0.3, 1, 3 mg/kg i.p., Compound I-4 0.3, 1, 3 mg/kg p.o., Des 5 mg/kg p.o.): significantly (p<0.05) decreased following Compound I-4 at the two highest doses (1 and 3 mg/kg) | REM time ([1]; same doses): significantly (p<0.05) decreased following Compound I-4 at the two highest doses (1 and 3 mg/kg)

OC1(c2ccc(Cl)cc2)c2ccccc2C2=NCCN21 (centres unmarked) [Compound A, 5-(4-chlorophenyl)-2,3-dihydroimidazo[1,2-b]isoindol-5-ol, reference compound]
IC50 [2]: 3.87 µM | Relative transporter specific accumulation [2, 5]: 106.48 ± 4.34 % of control | Transporter specific accumulation [2, 5]: 471.00 ± 14.24 cpm | Relative transporter specific accumulation [2, 6]: 92.92 ± 5.23 % of control | Transporter specific accumulation [2, 6]: 411.00 ± 20.23 cpm | Relative transporter specific accumulation [2, 7]: 69.86 ± 2.64 % of control | Transporter specific accumulation [2, 7]: 309.00 ± 8.08 cpm | Relative transporter specific accumulation ([2]; 3.00 μM nominal): 54.89 ± 4.37 % of control | Transporter specific accumulation ([2]; 3.00 μM nominal): 181.33 ± 14.06 cpm | Relative transporter specific accumulation [2, 8]: 38.96 ± 1.63 % of control | Transporter specific accumulation [2, 8]: 172.33 ± 5.44 cpm | Relative transporter specific accumulation ([2]; 30.00 μM nominal): 20.18 ± 1.49 % of control | Transporter specific accumulation ([2]; 30.00 μM nominal): 66.67 ± 4.78 cpm | Relative transporter specific accumulation [2, 9]: 20.65 ± 0.69 % of control | Transporter specific accumulation [2, 9]: 91.33 ± 1.76 cpm | inhibition at 10 µM ([2]; human, Maximum % inhibition, MATE1, HEK293 cells, metformin (10 μM), NIO: no inhibition observed): 79% | inhibition at 0.04 μM [2, 10]: -6% | inhibition at 0.12 μM [2, 11]: 7% | inhibition at 1.11 μM [2, 12]: 30% | inhibition at 3 μM [2, 13]: 45% | inhibition at 10 µM [2, 14]: 61% | inhibition at 30 μM [2, 15]: 80% | inhibition at 30 μM [2, 16]: 79% | Relative transporter specific accumulation ([3]; 3.00 μM nominal): 97.60 ± 4.33 % of control | Transporter specific accumulation ([3]; 3.00 μM nominal): 3,883.00 ± 158.50 cpm | Relative transporter specific accumulation ([3]; 30.00 μM nominal): 89.65 ± 3.21 % of control | Transporter specific accumulation ([3]; 30.00 μM nominal): 3,566.67 ± 111.53 cpm | Maximum % inhibition ([3]; OAT3, HEK293 cells, E3S (1 μM), NIO: no inhibition observed): NIO | inhibition at 3 μM [3, 13]: 2% | inhibition at 30 μM [3, 15]: 10% | maximum inhibition of OAT3-mediated E3S accumulation ([3]; up to 100 μM (Compound A up to 30 μM)): did not inhibit; also recorded: not an in vitro inhibitor | IC50 [4]: 12.8 µM | Relative transporter specific accumulation [4, 5]: 90.25 ± 3.17 % of control | Transporter specific accumulation [4, 5]: 108.00 ± 2.98 cpm | Relative transporter specific accumulation [4, 6]: 96.94 ± 8.16 % of control | Transporter specific accumulation [4, 6]: 116.00 ± 9.43 cpm | Relative transporter specific accumulation [4, 7]: 89.69 ± 6.53 % of control | Transporter specific accumulation [4, 7]: 107.33 ± 7.45 cpm | Relative transporter specific accumulation ([4]; 3.00 μM nominal): 97.37 ± 11.23 % of control | Transporter specific accumulation ([4]; 3.00 μM nominal): 86.33 ± 7.06 cpm | Relative transporter specific accumulation [4, 8]: 51.81 ± 3.80 % of control | Transporter specific accumulation [4, 8]: 62.00 ± 4.35 cpm | Relative transporter specific accumulation ([4]; 30.00 μM nominal): 27.07 ± 4.56 % of control | Transporter specific accumulation ([4]; 30.00 μM nominal): 24.00 ± 3.54 cpm | Relative transporter specific accumulation [4, 9]: 20.61 ± 1.94 % of control | Transporter specific accumulation [4, 9]: 24.67 ± 2.26 cpm | inhibition at 10 µM ([4]; human, Maximum % inhibition, MATE2-K, HEK293 cells, metformin (10 μM), NIO: no inhibition observed): 79% | inhibition at 0.04 μM [4, 10]: 10% | inhibition at 0.12 μM [4, 11]: 3% | inhibition at 1.11 μM [4, 12]: 10% | inhibition at 3 μM [4, 13]: 3% | inhibition at 10 µM [4, 14]: 48% | inhibition at 30 μM [4, 15]: 73% | inhibition at 30 μM [4, 16]: 79%
